Entries after “also recorded” stand apart in the source; their conditions may differ. No end group written: not given here.
Key:
HCT116 cells = assay: Glutamine competition experiment (FITC-P-LPK uptake); format: cell-based, human; conditions: 0–32 mM glutamine, 37 °C, 2 h
Experimental: Then these cells were washed with ice-cold PBS three times gently, suspended in PBS and transferred to a 96-well costar plate. The fluorescence intensity was measured in a multi-well plate reader (BioTek synergy4).

U87 tumors = assay: in vivo; set-up: species or system human xenograft in BALB/c nude mice; conditions: female, BALB/c nude, mouse, iv, 3.7 MBq, 2 h
Experimental: (§1) To obtain ^68Ga, 0.1 M HCl was used to elute a ^68Ge-^68Ga generator. The radioactivity of eluate was monitored. The radioactive elution peak was collected for ^68Ga radiolabeling experiment. An aliquot of 150 μg of compound P-LPK or P-CON was put in a glass vial and dissolved with 0.2 M sodium acetate/acetic acid buffer, pH 3.8. Then ^68GaCl3 tracer was added, and the pH was adjusted to fall in a range of 3.5~4 with 0.1 M NaOH. The solution was stored at room temperature for 0.5 h. The radiochemical purities of ^68Ga-P-LPK and ^68Ga-P-CON were measured with thin-layer chromatography (TLC), using silica gel-impregnated glass fiber stripe (iTLC SG) and 0.25 M sodium citrate/citric acid buffer as mobile phase. ^68GaCl3 was used as a control.
(§2) Each U87 and HCT116 tumor-bearing mouse was injected in a tail vein with 3.7 MBq (100 μCi, 0.1 nmol in 100 μl) of ^68Ga-P-LPK or ^68Ga-P-CON under isoflurane anesthesia (n = 4 per group). For static PET, 5-min scans were acquired at 30 min, 60 min, and 120 min after injection. The maximum radioactivity concentrations within a tumor or an organ were obtained from mean pixel values within the multiple regions of interest (ROI) volume.

in vivo [1] = assay: in vivo; set-up: species or system human xenograft in BALB/c nude mice; conditions: female, BALB/c nude, mouse, iv, 3.7 MBq, total radioactivity, T/NT ratio
Experimental: as §1, §2

in vivo [2] = assay: in vivo; set-up: species or system human xenograft in BALB/c nude mice; conditions: female, BALB/c nude, mouse, iv, 3.7 MBq, total radioactivity, T/NT ratio; remark: listed apart in the source
Experimental: as §1, §2
For the blocking experiment, unlabeled P-LPK was first injected into mice (n = 3 per group), and 3.7 MBq ^68Ga-P-LPK was then injected. Static PET images were acquired at 30 min, 60 min and 120 min post-injection.

[3] = system: Plasminogen activator inhibitor 1 precursor (PAI1); conditions: MDA-MB-231, bioinformatics analysis; cited from earlier work
Excerpt: (§3) The specific binding mechanisms of a peptide to a cell is presumably by its binding to a given receptor expressed at the cell membrane.

human CRC cell lines [4] = conditions: earlier phage display study; cited from earlier work
Excerpt: The phage display technique is a powerful tool to identify novel targeting peptides in researches and clinics[10]–[12]. By screening whole cells, it is able to identify short peptides that interact with cell surface molecules.

CRC cells = conditions: conjugated to CPT
SLC1A5 in HCT116 cells = assay: FITC-P-LPK binding after SLC1A5 knockdown; format: cell-based, human; conditions: si-SLC1A5, 48 h
Experimental: (§4) Fig. 6 P-LPK bound to SLC1A5 and entered CRC cells through endocytosis. a, b Western blotting analysis of SLC1A5 in NCM460, HCT116, LoVo, SW480, HT29 and Colo320HSR cells. After knocking down SLC1A5 in HCT116 and HT29, the binding intensity of FITC-P-LPK to cells was observed by confocal microscopy. Bar, 10 μm. c, d Effects of different endocytosis inhibitors on the internalization of FITC-P-LPK. HCT116 cells were pre-treated with 10 µM chlorpromazine, 50 μM methyl-β-cyclodextrin, 20 µM Amiloride hydrochloride for 30 min at 37 °C. Subsequently, the cells were incubated with FITC-P-LPK for 2 h. Then the fluorescence intensity was observed by confocal microscopy and detected using a multi-well plate reader (n = 5, means ± SD, NC vs CPZ, p = 0.0001; NC vs MβCD, p = 0.9069; NC vs EIPA, p = 0.9812) (****p < 0.0001). Bar, 10 μm. e The competition experiment with SLC1A5 substrates glutamine. FITC-P-LPK was incubated with increasing concentrations (0–32 mM) of glutamine in HCT116 cells at 37 °C for 2 h. The fluorescence intensity was measured in a multi-well plate reader (n = 5, means ± SD). […]
(§5) Primary antibodies against SLC1A5 (Abcam,  Cat No. ab237704,1:1000) and secondary antibodies labeled with HRP (YEASEN, 33701ES60, China,1:5000) was applied. Signals were detected using ECL Kit (Pierce Biotech, Rockford, IL). β-Actin (Sigma,USA, A5441) was performed as an internal control.

SLC1A5 in HT29 cells = assay: FITC-P-LPK binding after SLC1A5 knockdown; format: cell-based, human; conditions: si-SLC1A5, 48 h
Experimental: as §4, §5

human CRC cell lines [5] = assay: Peptide binding to a panel of human CRC cell lines; format: cell-based; conditions: confocal imaging, in contrast to NCM460; FITC-labeled
Experimental: NCM460, Colo320HSR, HCT116, LoVo, HT29 and SW480 cells were respectively incubated with FITC-labeled P-LPK (Random peptide P-CON) peptides for 2 h at 37 °C and washed with PBS for three times. The cells were fixed with 4% paraformaldehyde for 30 min at room temperature, and then 4,6-diamidino-2-phenylindole (DAPI) was used for nucleic acid stain. A laser scanning confocal microscope was used to visualize the cells. The fluorescence intensity was analyzed using the Image-Pro Plus 6.0 software. For cell localization experiment, 20 μg/ml rhodamine-labeled peptides were incubated with NCM460 and HCT116 for 2 h, and then washed with PBS for three times. After that, the cell membrane was stained with a blue cell membrane probe (Thermo Fisher Scientific, Cat. No. W11263). The binding of Rhodamine-P-LPK to cells and their localization in cells was observed under a confocal microscope.

α-2-macroglobulin = conditions: androgen-independent prostate cancer cells; cited from earlier work
Excerpt: as §3

[6] = system: Metalloproteinase Inhibitor 1 (TIMP-1); conditions: MDA-MB-231, bioinformatics analysis; cited from earlier work
Excerpt: as §3

[7] = system: 78 kDa glucose-regulated protein; conditions: androgen-independent prostate cancer cells; cited from earlier work
Excerpt: as §3

Compound: NC(=O)CC[C@H](N)C(=O)O [glutamine]
- Effect on uptake of FITC-P-LPK (HCT116 cells): does not affect the uptake of P-LPK

Compound: DLPSRTSALASG [68Ga-P-CON, metal not drawn]
- T/NT ratio (U87 tumors): 1.28
- tissue to tissue ratio at 0.5 h (in vivo [1]): 1.75
- tissue to tissue ratio at 1 h (in vivo [1]): 1.56
- tissue to tissue ratio at 2 h (in vivo [1]): 1.33
- tissue to tissue ratio at 0.5 h (in vivo [2]): 1.58
- tissue to tissue ratio at 1 h (in vivo [2]): 1.49
- tissue to tissue ratio at 2 h (in vivo [2]): 1.37

Compound: DTFNSFGRVRIE [peptide targeting MDA-MB-231]
- Targeting [3]: specifically targeted

Compound: DWSSWVYRDPQT [CBP-DWS]
- Binding to CRC cells (human CRC cell lines [4]): selectively bound to CRC cells
- Improvement of CPT killing when used as targeting vector (CRC cells): did not improve the targeted killing ability

Compound: FITC-P-LPK (LPKTVSSDMSLN; also: FITC label, position not given here)
- Fluorescence after SLC1A5 knockdown (SLC1A5 in HCT116 cells): reduction of the fluorescence
- Fluorescence after SLC1A5 knockdown (SLC1A5 in HT29 cells): reduction of the fluorescence
- FITC-peptide binding to CRC cells (human CRC cell lines [5]): stronger green fluorescence in CRC cells than normal NCM460 cells; also recorded: abundant binding capacity to human CRC cell lines

Compound: PKRGFQD [peptide targeting androgen-independent prostate cancer cells]
- Binding (α-2-macroglobulin): bind specifically to α-2-macroglobulin

Compound: PRWAVSP [peptide targeting MDA-MB-231]
- Targeting [6]: specifically targeted Metalloproteinase Inhibitor 1 (TIMP-1)

Compound: SNTRVAP [peptide targeting androgen-independent prostate cancer cells]
- Binding [7]: bind specifically
